Patent US20090203634A1, “Compositions and Uses of Amooranin Compounds” (Variety Children's Hospital d/b/a Miami Children's Hospital, priority 2005, published 2009)
In brackets after ≈: the same amount, converted by molar mass. Structures can show the parent of a compound that is named as a salt. Where two headings read alike, the source gives them in different places. Marks after values point to notes of the source that are not given here.

Key:
[1] = tested on: CEM/VLB; assay: MTT cytotoxicity assay (Examples 1-5); format: cell-based, human
Source text: (§1) Cytotoxicity Assay (Examples 1-5). […] Cell proliferation kit I (MTT) from Roche Diagnostics GmbH (Indianapolis, Ind.) was used for cytotoxicity assays and manufacturers protocol was followed for the assay.

[2] = tested on: CEM; assay: MTT cytotoxicity assay (Examples 1-5); format: cell-based, human
Source text: as §1

[3] = tested on: SW620/Ad-300; assay: MTT cytotoxicity assay (Examples 1-5); format: cell-based, human; conditions: for IC50: mean ± SD (n = 3)
Source text: as §1

[4] = tested on: SW620 human tumor xenografts; assay: Xenograft studies with AMR in nude mice; format: in vivo; conditions: for Therapeutic ratio: Therapeutic Ratio = 100 - Tumor Growth Rate Index (GRI)
Experimental: Xenograft studies with AMR in nude mice. Male athymic nude (nu/nu) mice of the BALB/c strain (4-5 weeks old) were purchased from Taconic Labs, NY. SW620 colon carcinoma cells (10^6/site) in 0.1 ml of Hank's balanced salt solution were injected subcutaneously into the right flank of the nude mice using a 21 gauge needle. When the tumors reached approximately 0.5 cm^3 size in volume (usually 14 days), chemotherapy with AMR was started involving six animals in each group with almost similar size tumors. […] AMR was dissolved in 1:1 mixture of Cremophor EL and ethanol for administration and the control treatments were doxorubicin dissolved in phosphate dissolved saline and saline alone (0 mg/kg). Tumor size (length and width) was recorded on every fifth day of treatment along with body weight and survival data. Tumor volume was calculated using the following formula: […]
Tumor growth rate was calculated as mean V1/V0 where V1 is the volume on the evaluation day of treatment effect and V0 is that on the first day of treatment. The growth rate index and therapeutic index estimates were calculated using the following formulae:
Therapeutic Ratio=100—Tumor Growth Rate Index (GRI)

[5] = tested on: MCF-10A; assay: TUNEL assay of DNA fragmentation; format: cell-based, human
Experimental: (§2) Analysis of DNA fragmentation by agarose gel electrophoresis. To assess the pattern of DNA cleavage caused by AMR, agarose gel electrophoresis was performed as described by Cohen and Duke (Cohen, J. J. and Duke, R. C. J Immunol, 1984, 132:38-42). Briefly, control and drug-treated cells (2×10^6 cells) were lysed with 0.5 ml lysis buffer containing 0.2% Triton X-100 at room temperature for 30 minutes. The supernatant fractions were collected by centrifugation at 12,000×g for 30 minutes. The DNA in these fractions was precipitated overnight with 100 μl 5 M sodium chloride and 0.5 ml 2-isopropanol at −20° C. The DNA was dissolved in 20 μl of 10 mM Tris-HCl (pH 7.4) and 1 mM EDTA buffer. RNase (10 units) was added to the samples before incubating at 60° C. for 1 hour. An equal volume of loading buffer was added afterwards and the samples were subjected to electrophoresis on a 2% agarose gel in Tris borate buffer at 50 V for 3 hours. The agarose gel was stained with ethidium bromide, and DNA fragmentation pattern was visualized in a UV transilluminator. AMR-induced DNA fragmentation was also analyzed by TUNEL assay using in situ cell detection kit according to manufacturer's instructions. Briefly, cells were permeabilized in a solution containing 0.1% Triton X-100 and 0.1% (w/v) sodium citrate for 2 minutes. After washing in PBS, cells were incubated with label solution and terminal transferase. Cells were incubated without terminal deoxynucleotidyl transferase was used as negative control. DNase (1 μg/ml) treated cells incubated with label solution in the presence of terminal deoxynucleotidyl transferase (TUNEL reaction mixture) was used as positive control and the details of TUNEL assay have been described earlier (Ramachandran, C. et al. Anticancer Res, 1997, 17:3369-3376).

[6] = tested on: MCF-7/TH; assay: TUNEL assay of DNA fragmentation; format: cell-based, human
Experimental: as §2

[7] = tested on: MCF-7; assay: TUNEL assay of DNA fragmentation; format: cell-based, human
Experimental: as §2

[8] = tested on: SW620; assay: MTT cytotoxicity assay (Examples 1-5); format: cell-based, human; conditions: mean ± SD (n = 3), read-out: AMR IC50
Source text: Cell proliferation kit I (MTT) from Roche Diagnostics GmbH (Indianapolis, Ind.) was used for cytotoxicity assays and manufacturers protocol was followed for the assay.

[9] = tested on: CEM/VLB; assay: DNA histogram analysis of cell cycle distribution; format: cell-based, human; conditions: AMR 0-2.5 μg/ml, 48 hours, up from 18.0% without AMR
Experimental: (§3) DNA Histogram Analysis. Following drug exposure for 48 hours, cells were centrifuged and resuspended in propidium iodide-hypotonic citrate solution for 1 hour before flow cytometric analysis of cell cycle distribution (Ramachandran, C. et al. Biochem Pharmacol, 1995, 49:545-552).

[10] = tested on: CEM; assay: DNA histogram analysis of cell cycle distribution; format: cell-based, human; conditions: AMR 0-2.5 μg/ml, 48 hours, up from 18.0% without AMR
Experimental: as §3

[11] = tested on: SW620/Ad-300; assay: DNA histogram analysis of cell cycle distribution; format: cell-based, human; conditions: AMR 0-2.5 μg/ml, 48 hours, up from 15.6% without AMR
Experimental: as §3

[12] = tested on: SW620; assay: DNA histogram analysis of cell cycle distribution; format: cell-based, human; conditions: AMR 0-2.5 μg/ml, 48 hours, up from 12.5% without AMR
Experimental: as §3

[13] = tested on: CEM/VLB; assay: Cellular DOX content by flow cytometry; format: cell-based, human; conditions: DOX 2 μg/ml with 1 and 2 μg/ml AMR
Experimental: (§4) Cellular DOX Content. […] Cellular DOX fluorescence was analyzed in a Coulter Elite flow cytometer. Fluorescence emission (above 530 nm) from at least 10,000 cells were collected, amplified and scaled to generate a single parameter histogram (Ramachandran, C. et al. Biochem Phammacol, 1995, 49:545-552).

[14] = tested on: CEM; assay: Cellular DOX content by flow cytometry; format: cell-based, human; conditions: DOX 2 μg/ml with 1 or 2 μg/ml AMR
Experimental: as §4

[15] = tested on: SW620/Ad-300; assay: Cellular DOX content by flow cytometry; format: cell-based, human; conditions: DOX 2 μg/ml with 1 and 2 μg/ml AMR
Experimental: as §4

[16] = tested on: SW620; assay: Cellular DOX content by flow cytometry; format: cell-based, human; conditions: DOX 2 μg/ml with 1 or 2 μg/ml AMR
Experimental: as §4

[17] = tested on: MCF-10A; assay: MTT cytotoxicity assay (Examples 6-8); format: cell-based, human; conditions: 0-8 μg/ml AMR for 48 hours
Experimental: (§5) Cytotoxicity assay (Examples 6-8). MTT assay was used to determine drug sensitivity (Hansen, M. B. et al. J Immunol Methods, 1989, 119:203-210). Cells (1×10^4) were grown in 96-well plates and after 48 hours, the medium was replaced with new medium. The cells were incubated at 37° C. with varying concentrations of AMR for 48 hours at 37° C. Cell viability was then assayed by adding MTT dye (500 μg/ml). Six hours after incubation period, MTT containing medium was removed. The formazan crystals were dissolved in 100 μl/well dimethyl sulfoxide, and the plates were read in BIO-RAD Benchmark Microplate Reader at 570 nm wavelength. All experiments were repeated three times with three replications in each and the mean values were estimated. Student's t test was used to determine the significant difference between IC50 values.

[18] = tested on: MCF-7/TH; assay: MTT cytotoxicity assay (Examples 6-8); format: cell-based, human; conditions: 0-8 μg/ml AMR for 48 hours
Experimental: as §5

[19] = tested on: MCF-7; assay: MTT cytotoxicity assay (Examples 6-8); format: cell-based, human; conditions: 0-8 μg/ml AMR for 48 hours
Experimental: as §5

[20] = tested on: MCF-10A; assay: Cell cycle analysis by flow cytometry; format: cell-based, human; conditions: 1 μg/ml AMR
Experimental: (§6) Cell cycle analysis. The number of cells in each stage of the cell cycle was monitored by flow cytometric analysis of cellular DNA content after staining with 1 mg/ml propidium iodide (Chen, G. et al. Cancer Res, 1993, 53:2544-2547). Data was analyzed to determine the percentage of cells at each phase of the cell cycle (G0+G1, S, and G2+M).

[21] = tested on: MCF-7/TH; assay: Cell cycle analysis by flow cytometry; format: cell-based, human; conditions: 1 μg/ml AMR, one range printed for MCF-7 and MCF-7/TH together
Experimental: as §6

[22] = tested on: MCF-7; assay: Cell cycle analysis by flow cytometry; format: cell-based, human; conditions: 1 μg/ml AMR, one range printed for MCF-7 and MCF-7/TH together
Experimental: as §6

[23] = tested on: MCF-10A; assay: DNA fragmentation by agarose gel electrophoresis; format: cell-based, human
Experimental: as §2

[24] = tested on: MCF-7/TH; assay: DNA fragmentation by agarose gel electrophoresis; format: cell-based, human
Experimental: as §2

[25] = tested on: MCF-7; assay: DNA fragmentation by agarose gel electrophoresis; format: cell-based, human
Experimental: as §2

[26] = tested on: MCF-10A; assay: Caspase-8 (LETD) activity by flow cytometry; format: cell-based, human; conditions: AMR 1-8 μg/ml, 48 hours
Experimental: (§7) Detection of apoptosis and caspase activity. Breast carcinoma or breast epithelial cells were incubated for 48 hours in the presence or absence of AMR (1-8 μg/ml). AMR-induced apoptosis was evaluated by Fluorescein Caspase (VAD) Activity Kit and caspase-8 (LETD) Activity Kit according to manufacturer's instructions ([…]-Calvo, M. et al. J Biol Chem, 1998, 273:32608-32613).

[27] = tested on: MCF-7/TH; assay: Caspase-8 (LETD) activity by flow cytometry; format: cell-based, human; conditions: AMR 1-8 μg/ml, 48 hours
Experimental: as §7

[28] = tested on: MCF-7; assay: Caspase-8 (LETD) activity by flow cytometry; format: cell-based, human; conditions: AMR 1-8 μg/ml, 48 hours
Experimental: as §7

COc1cccc2c1C(=O)c1c(O)c3c(c(O)c1C2=O)C[C@@](O)(C(=O)CO)C[C@@H]3O[C@H]1C[C@H](N)[C@H](O)[C@H](C)O1 [DOX, Doxorubicin hydrochloride, reference compound]
resistance to DOX ([1]; CEM/VLB versus CEM): approximately 112 fold
IC50 ([1]; Homo sapiens, read-out: DOX IC50, CEM/VLB, 48 hours exposure): 13.4 µg/mL
IC50 ([1]; Homo sapiens, read-out: DOX IC50, CEM/VLB, mean ± SD (n = 3)): 23.1 ± 0.78 µM
IC50 ([2]; Homo sapiens, CCRF-CEM, read-out: DOX IC50, 48 hours exposure): 0.12 µg/mL
IC50 ([2]; Homo sapiens, CCRF-CEM, read-out: DOX IC50, mean ± SD (n = 3)): 0.23 ± 0.02 µM
IC50 ([3]; Homo sapiens, SW620/AD300, read-out: DOX IC50, SW620/Ad-300): 28.9 ± 0.95 µM
resistance to DOX ([3]; SW620/Ad-300 versus SW620, based on IC50 values): approximately 125 fold
Survival (%) ([4]; 2 mg/kg): 83.3%

DNase [reference compound]
apoptotic cells (TUNEL) ([5]; DNase-treated positive control): more than 95%
apoptotic cells (TUNEL) ([6]; DNase-treated positive control): more than 95%
apoptotic cells (TUNEL) ([7]; DNase-treated positive control): more than 95%

CC1(C)CC[C@]2(C(=O)O)CC[C@]3(C)C(=CC[C@@H]4[C@@]5(CO)CCC(=O)C(C)(C)[C@@H]5CC[C@]43C)[C@@H]2C1 [AMR, 25-hydroxy-3-oxoolean-12-en-28-oic acid]
Modulator Index (MI = fold decrease in resistance/modulator in μM concentration) ([1]; CEM/VLB): 40
resistance to AMR ([1]; CEM/VLB versus CEM): 1.9 fold
IC50 ([1]; CEM/VLB, mean ± SD (n = 3), read-out: AMR IC50): 10.2 ± 0.11 µM
IC50 ([2]; mean ± SD (n = 3), read-out: AMR IC50): 5.31 ± 0.02 µM
Modulator Index (MI = fold decrease in resistance/modulator in μM concentration) ([3]; SW620/Ad-300): 41.6
IC50 ([3]; SW620/Ad-300, read-out: AMR IC50): 12.7 ± 0.27 µM
resistance to AMR ([3]; SW620/Ad-300 versus SW620): 1.6 fold
IC50 [8]: 7.7 ± 0.15 µM
percentage of G2+M cells [9]: 48.7%
percentage of G2+M cells [10]: 61.1%
G2+M percentage [11]: 52.8%
G2+M percentage [12]: 59.5%
cellular DOX accumulation [13]: increased cellular DOX accumulation in a dose-dependent manner
cellular DOX fluorescence [14]: No significant change
cellular DOX accumulation [15]: increased cellular DOX accumulation in a dose-dependent manner
cellular DOX fluorescence [16]: No significant change
IC50 [17]: 6.9 µg/mL (≈ 14.7 µM)
IC50 [18]: 6.8 µg/mL (≈ 14.4 µM)
IC50 [19]: 3.8 µg/mL (≈ 8.07 µM)
G2/M phase arrest [20]: does not induce any G2/M phase arrest
accumulation in G2+M phase population [21]: 12.4%-32.2%
accumulation in G2+M phase population [22]: 12.4%-32.2%
cells with DNA fragmentation (TUNEL) ([5]; AMR 1-8 μg/ml, 48 hours): 0-37.1%
cells with DNA fragmentation (TUNEL) ([6]; AMR 1-8 μg/ml, 48 hours): 32-48.7%
cells with DNA fragmentation (TUNEL) ([7]; AMR 1-8 μg/ml, 48 hours): 37.3-72.1%
DNA fragmentation ([23]; 1 μg/ml AMR for 48 hours): almost undetectable
DNA ladder pattern ([23]; AMR treatment for 48 hours): less distinct
DNA ladder pattern ([24]; 1 μg/ml AMR for 48 hours): highly visible
DNA ladder pattern ([24]; AMR treatment for 48 hours): distinct ladder pattern
DNA ladder pattern ([25]; 1 μg/ml AMR for 48 hours): highly visible
DNA ladder pattern ([25]; AMR treatment for 48 hours): distinct ladder pattern
cells with caspase activation (caspase-8 positive cells) [26]: 4-32.8%
cells with caspase activation (caspase-8 positive cells) [27]: 28.5-43.2%
cells with caspase activation (caspase-8 positive cells) [28]: 40.8-71%
Survival (%) ([4]; 2 mg/kg): 83.3%
Therapeutic ratio ([4]; 2 mg/kg): 61.3**
Survival (%) ([4]; 5 mg/kg): 57.1%
Therapeutic ratio ([4]; 5 mg/kg): 37.6**
Survival (%) ([4]; 10 mg/kg): 57.1%
Therapeutic ratio ([4]; 10 mg/kg): 41.9**
tumor growth rate ([4]; AMR 2-10 mg/kg intraperitoneal, compared to doxorubicin (2 mg/kg) or saline): significantly reduced tumor growth rate
